Laboratory results as given in patent publication US20060171966A1, “Variants of vibrio cholerae 01 biotype e1 tor with attributes of classical biotype” (priority 2002, published 2006).

Assays:
Assay type in all cases: cell-based, Vibrio cholerae O1
[1] = test system: V. cholerae O1 Matlab II; test: Sensitivity to polymyxin B (50U), Matlab II; details: 1 strain
From the text: (§1) […]. The basis of a retrospective examination of these strains was their unusual response to polymyxin B (50U), chicken cell agglutination (CCA), Voges-Proskauer (VP) reaction, and sensitivity to group IV and V phages, all of which are phenotypic traits commonly used to differentiate between the classical and El Tor biotypes. The 24 strains were reexamined for the above phenotypic characteristics by standard procedures.
(§2) We examined the commonly used phenotypic traits used to distinguish between the El Tor and classical biotypes of V. cholerae and differentiated the 24 strains into three types (Table 1), which we classified as Matlab types I, II, and III. Matlab type I included two strains belonging to the Inaba serotype that were resistant to both the El Tor-specific group IV and the classical biotype specific group V phages, negative by the CCA and VP tests (both are classical traits), and resistant to polymyxin B (an El Tor trait).

[2] = test system: V. cholerae O1 Matlab I; test: Sensitivity to polymyxin B (50U), Matlab I; details: 2 strains
From the text: as §1, §2

[3] = test system: V. cholerae O1 Matlab III; test: Sensitivity to polymyxin B (50U), Matlab III; details: 21 strains
From the text: as §1, §2

Substance: polymyxin B
- Sensitivity to polymyxin B (50U) [1]: sensitive
- Sensitivity to polymyxin B (50U) [2]: resistant
- Sensitivity to polymyxin B (50U) [3]: typical of the El Tor biotype
